Measurements: publication PMC7265341, “Quantifying CDK inhibitor selectivity in live cells” (Nature Communications, 2020)
Where two headings read alike, the source gives them in different places.

Experiments:
[1] = target: CDK1/Cyclin E1 (Homo sapiens, UniProt P06493); test: NanoBRET live-cell target engagement, CDK1-NanoLuc/Cyclin E1 in HEK-293; format: binding; details: CDK1/E1, read-out: Inhibition at 10µM (%)
[2] = target: CDK2/Cyclin E1 (Homo sapiens, UniProt P24941); test: NanoBRET live-cell target engagement, CDK2-NanoLuc/Cyclin E1 in HEK-293; format: binding; details: CDK2/E1, read-out: Inhibition at 10µM (%)
[3] = target: CDK3/Cyclin E1 (Homo sapiens, UniProt Q00526); test: NanoBRET live-cell target engagement, CDK3-NanoLuc/Cyclin E1 in HEK-293; format: binding; details: CDK3/E1, read-out: Inhibition at 10µM (%)
CDK3/Cyclin E1, sequence (Q00526 whole entry): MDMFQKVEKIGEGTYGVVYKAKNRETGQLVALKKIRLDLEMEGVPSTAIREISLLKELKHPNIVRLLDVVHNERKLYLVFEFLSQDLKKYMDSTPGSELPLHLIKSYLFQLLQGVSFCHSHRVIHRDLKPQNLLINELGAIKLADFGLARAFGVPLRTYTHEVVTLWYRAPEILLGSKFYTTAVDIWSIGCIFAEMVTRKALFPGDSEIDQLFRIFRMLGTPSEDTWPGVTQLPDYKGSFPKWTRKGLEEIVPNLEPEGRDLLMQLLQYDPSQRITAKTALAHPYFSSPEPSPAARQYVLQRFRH
CDK3/Cyclin E1, sequence (P24864 whole entry partner): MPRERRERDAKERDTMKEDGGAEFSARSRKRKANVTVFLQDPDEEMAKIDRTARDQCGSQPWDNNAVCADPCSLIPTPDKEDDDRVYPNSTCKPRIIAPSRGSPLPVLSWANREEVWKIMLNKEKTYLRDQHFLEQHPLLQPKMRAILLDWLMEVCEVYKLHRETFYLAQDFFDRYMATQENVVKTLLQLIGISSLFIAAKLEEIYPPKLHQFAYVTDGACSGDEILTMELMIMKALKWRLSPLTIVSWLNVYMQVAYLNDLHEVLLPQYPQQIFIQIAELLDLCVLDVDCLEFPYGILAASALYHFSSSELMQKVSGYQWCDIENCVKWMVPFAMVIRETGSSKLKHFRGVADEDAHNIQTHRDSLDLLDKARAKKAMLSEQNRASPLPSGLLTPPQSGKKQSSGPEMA

[4] = target: CDK4/Cyclin D1 (Homo sapiens, UniProt P11802); test: NanoBRET live-cell target engagement, NanoLuc-CDK4/Cyclin D1 in HEK-293; format: binding; details: CDK4/D1, read-out: Inhibition at 10µM (%)
CDK4/Cyclin D1, sequence (P11802 whole entry): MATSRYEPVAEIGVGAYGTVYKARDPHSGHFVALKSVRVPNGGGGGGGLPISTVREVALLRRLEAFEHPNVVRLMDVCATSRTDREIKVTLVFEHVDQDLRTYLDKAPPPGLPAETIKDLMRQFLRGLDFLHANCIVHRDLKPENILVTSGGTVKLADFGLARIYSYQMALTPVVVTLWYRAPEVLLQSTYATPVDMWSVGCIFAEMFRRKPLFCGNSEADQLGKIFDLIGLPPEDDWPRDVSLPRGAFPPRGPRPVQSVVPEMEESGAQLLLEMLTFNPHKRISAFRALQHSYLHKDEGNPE
CDK4/Cyclin D1, sequence (P24385 whole entry partner): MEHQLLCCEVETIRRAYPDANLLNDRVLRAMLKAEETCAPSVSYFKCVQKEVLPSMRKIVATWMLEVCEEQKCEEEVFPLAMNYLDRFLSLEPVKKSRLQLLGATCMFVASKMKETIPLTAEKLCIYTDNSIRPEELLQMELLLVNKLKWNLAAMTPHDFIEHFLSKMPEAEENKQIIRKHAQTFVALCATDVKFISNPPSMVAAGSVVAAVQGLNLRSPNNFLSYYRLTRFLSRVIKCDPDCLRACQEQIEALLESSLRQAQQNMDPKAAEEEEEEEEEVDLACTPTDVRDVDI

[5] = target: CDK5/CDK5R1 (Homo sapiens, UniProt Q00535); test: NanoBRET live-cell target engagement, CDK5-NanoLuc/CDK5R1 in HEK-293; format: binding; details: CDK5/CDK5R1, read-out: Inhibition at 10µM (%)
[6] = target: CDK6/Cyclin D1 (Homo sapiens, UniProt Q00534); test: NanoBRET live-cell target engagement, NanoLuc-CDK6/Cyclin D1 in HEK-293; format: binding; details: CDK6/D1, read-out: Inhibition at 10µM (%)
CDK6/Cyclin D1, sequence (Q00534 whole entry): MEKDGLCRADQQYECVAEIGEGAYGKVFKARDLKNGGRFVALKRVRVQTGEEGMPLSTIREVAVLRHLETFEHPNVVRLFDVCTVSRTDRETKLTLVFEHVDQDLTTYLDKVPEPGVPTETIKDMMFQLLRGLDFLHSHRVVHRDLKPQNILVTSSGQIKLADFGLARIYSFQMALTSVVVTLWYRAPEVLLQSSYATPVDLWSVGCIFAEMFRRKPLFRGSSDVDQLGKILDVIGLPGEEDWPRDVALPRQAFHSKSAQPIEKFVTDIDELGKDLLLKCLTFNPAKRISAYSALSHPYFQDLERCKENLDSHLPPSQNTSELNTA
CDK6/Cyclin D1, sequence (P24385 whole entry partner): as the sequence (P24385 whole entry partner) above

[7] = target: CDK7 (Homo sapiens, UniProt P50613); test: NanoBRET live-cell target engagement, NanoLuc-CDK7 in HEK-293; format: binding; details: CDK7, read-out: Inhibition at 10µM (%)
[8] = target: CDK8/Cyclin C (Homo sapiens, UniProt P49336); test: NanoBRET live-cell target engagement, NanoLuc-CDK8/Cyclin C in HEK-293; format: binding; details: CDK8/C, read-out: Inhibition at 10µM (%)
CDK8/Cyclin C, sequence (P49336 whole entry): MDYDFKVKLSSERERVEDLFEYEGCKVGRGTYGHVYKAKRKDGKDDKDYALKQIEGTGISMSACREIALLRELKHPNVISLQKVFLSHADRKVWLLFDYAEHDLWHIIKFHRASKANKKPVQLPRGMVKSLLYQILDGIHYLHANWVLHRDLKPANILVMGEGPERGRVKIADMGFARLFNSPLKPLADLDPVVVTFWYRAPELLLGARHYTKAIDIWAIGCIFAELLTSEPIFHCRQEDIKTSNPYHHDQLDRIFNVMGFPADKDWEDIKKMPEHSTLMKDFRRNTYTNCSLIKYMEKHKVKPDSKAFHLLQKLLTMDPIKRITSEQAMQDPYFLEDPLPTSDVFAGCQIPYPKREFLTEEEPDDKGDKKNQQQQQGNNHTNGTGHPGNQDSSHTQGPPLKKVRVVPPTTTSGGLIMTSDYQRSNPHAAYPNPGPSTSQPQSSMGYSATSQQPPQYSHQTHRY
CDK8/Cyclin C, sequence (P24863 whole entry partner): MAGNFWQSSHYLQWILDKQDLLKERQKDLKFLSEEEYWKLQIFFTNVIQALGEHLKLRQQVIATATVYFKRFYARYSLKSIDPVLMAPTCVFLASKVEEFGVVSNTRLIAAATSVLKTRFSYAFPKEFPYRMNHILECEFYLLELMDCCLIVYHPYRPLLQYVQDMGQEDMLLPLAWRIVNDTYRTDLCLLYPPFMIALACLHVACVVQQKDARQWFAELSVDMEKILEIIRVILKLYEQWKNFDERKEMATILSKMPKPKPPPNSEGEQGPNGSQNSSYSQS

[9] = target: CDK9/Cyclin K (Homo sapiens, UniProt P50750); test: NanoBRET live-cell target engagement, NanoLuc-CDK9/Cyclin K in HEK-293; format: binding; details: CDK9/K, read-out: Inhibition at 10µM (%)
CDK9/Cyclin K, sequence (P50750 whole entry): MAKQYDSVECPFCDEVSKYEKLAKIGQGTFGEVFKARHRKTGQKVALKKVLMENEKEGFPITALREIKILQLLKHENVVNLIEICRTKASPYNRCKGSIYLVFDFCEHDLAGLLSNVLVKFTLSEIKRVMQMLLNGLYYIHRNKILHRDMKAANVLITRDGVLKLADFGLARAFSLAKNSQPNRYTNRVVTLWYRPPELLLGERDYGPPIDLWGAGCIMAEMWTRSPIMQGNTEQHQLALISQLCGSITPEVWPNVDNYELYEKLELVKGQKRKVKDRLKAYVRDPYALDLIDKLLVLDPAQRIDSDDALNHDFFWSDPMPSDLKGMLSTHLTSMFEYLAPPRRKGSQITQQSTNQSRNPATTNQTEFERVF
CDK9/Cyclin K, sequence (O75909 whole entry partner): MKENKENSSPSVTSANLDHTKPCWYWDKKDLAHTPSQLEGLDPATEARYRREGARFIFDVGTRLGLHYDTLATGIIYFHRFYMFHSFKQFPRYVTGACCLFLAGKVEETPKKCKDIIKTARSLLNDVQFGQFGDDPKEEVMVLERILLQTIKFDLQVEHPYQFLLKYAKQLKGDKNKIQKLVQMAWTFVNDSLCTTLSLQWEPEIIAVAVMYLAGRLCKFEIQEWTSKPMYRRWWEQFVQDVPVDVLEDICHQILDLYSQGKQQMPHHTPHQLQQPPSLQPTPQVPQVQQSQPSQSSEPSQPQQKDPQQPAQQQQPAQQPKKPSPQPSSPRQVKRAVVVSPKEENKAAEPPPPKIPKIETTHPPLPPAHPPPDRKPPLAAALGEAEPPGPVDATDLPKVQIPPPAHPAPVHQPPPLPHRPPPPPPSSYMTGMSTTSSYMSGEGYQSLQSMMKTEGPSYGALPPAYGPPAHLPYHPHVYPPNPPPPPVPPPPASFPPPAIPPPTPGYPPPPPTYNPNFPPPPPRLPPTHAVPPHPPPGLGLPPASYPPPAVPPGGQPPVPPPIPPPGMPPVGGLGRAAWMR

[10] = target: T1, CDK11A/Cyclin L2 (Homo sapiens, UniProt Q9UQ88); test: NanoBRET live-cell target engagement, CDK11A-NanoLuc/Cyclin L2 in HEK-293; format: binding; details: CDK11a/L2, read-out: Inhibition at 10µM (%)
T1 sequence (Q9UQ88 1-783): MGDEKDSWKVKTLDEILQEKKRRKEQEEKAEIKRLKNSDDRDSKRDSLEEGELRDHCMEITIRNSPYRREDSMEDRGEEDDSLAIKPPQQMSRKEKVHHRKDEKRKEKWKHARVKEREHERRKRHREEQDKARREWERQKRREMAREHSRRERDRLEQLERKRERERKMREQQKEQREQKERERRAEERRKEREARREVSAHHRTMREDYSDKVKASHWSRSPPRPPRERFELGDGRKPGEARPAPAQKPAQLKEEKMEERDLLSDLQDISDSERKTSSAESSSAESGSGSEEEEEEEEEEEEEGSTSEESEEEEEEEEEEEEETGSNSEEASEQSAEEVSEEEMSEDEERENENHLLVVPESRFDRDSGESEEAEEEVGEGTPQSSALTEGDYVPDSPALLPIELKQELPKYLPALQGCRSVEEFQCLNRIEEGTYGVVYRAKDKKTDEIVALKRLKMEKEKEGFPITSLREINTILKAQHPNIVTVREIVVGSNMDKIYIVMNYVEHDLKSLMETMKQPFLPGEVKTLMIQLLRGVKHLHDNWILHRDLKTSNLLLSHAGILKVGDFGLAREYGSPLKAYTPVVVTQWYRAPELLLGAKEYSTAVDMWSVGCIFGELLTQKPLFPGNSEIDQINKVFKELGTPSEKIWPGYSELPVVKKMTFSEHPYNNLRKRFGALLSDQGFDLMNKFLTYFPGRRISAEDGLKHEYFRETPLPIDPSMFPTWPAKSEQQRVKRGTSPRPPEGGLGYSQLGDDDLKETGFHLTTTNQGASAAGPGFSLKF

[11] = target: CDK11B/Cyclin L2 (Homo sapiens, UniProt P21127); test: NanoBRET live-cell target engagement, CDK11B-NanoLuc/Cyclin L2 in HEK-293; format: binding; details: CDK11b/L2, read-out: Inhibition at 10µM (%)
CDK11B/Cyclin L2, sequence (P21127 1-782 isoform P21127-2): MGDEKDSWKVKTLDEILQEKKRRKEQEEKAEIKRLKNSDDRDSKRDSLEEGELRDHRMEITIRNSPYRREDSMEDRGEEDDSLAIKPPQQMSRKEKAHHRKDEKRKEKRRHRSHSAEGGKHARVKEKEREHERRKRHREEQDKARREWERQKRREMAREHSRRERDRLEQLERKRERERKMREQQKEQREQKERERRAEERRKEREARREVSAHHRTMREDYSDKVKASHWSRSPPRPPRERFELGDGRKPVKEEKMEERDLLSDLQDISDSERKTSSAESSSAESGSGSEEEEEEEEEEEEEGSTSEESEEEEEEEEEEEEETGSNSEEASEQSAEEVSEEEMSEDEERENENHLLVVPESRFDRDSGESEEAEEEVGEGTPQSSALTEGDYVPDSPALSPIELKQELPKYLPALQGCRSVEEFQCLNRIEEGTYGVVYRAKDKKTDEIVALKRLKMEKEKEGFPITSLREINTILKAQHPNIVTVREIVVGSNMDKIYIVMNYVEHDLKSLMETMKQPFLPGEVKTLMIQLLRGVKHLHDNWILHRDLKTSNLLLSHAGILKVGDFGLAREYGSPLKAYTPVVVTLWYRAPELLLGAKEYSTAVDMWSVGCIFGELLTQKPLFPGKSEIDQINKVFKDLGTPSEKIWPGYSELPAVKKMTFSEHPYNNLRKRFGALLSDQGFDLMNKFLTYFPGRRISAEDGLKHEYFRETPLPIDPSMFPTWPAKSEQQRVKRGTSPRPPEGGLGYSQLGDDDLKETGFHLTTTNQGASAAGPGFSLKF

[12] = target: CDK20/Cyclin H (Homo sapiens, UniProt Q8IZL9); test: NanoBRET live-cell target engagement, NanoLuc-CDK20/Cyclin H in HEK-293; format: binding; details: CDK20/H, read-out: Inhibition at 10µM (%)
[13] = target: CDK19/Cyclin C (Homo sapiens, UniProt Q9BWU1); test: NanoBRET live-cell target engagement, NanoLuc-CDK19/Cyclin C in HEK-293; details: for inhibition at 10 µM: read-out: Inhibition at 10µM (%), CDK19/C
CDK19/Cyclin C, sequence (Q9BWU1 whole entry): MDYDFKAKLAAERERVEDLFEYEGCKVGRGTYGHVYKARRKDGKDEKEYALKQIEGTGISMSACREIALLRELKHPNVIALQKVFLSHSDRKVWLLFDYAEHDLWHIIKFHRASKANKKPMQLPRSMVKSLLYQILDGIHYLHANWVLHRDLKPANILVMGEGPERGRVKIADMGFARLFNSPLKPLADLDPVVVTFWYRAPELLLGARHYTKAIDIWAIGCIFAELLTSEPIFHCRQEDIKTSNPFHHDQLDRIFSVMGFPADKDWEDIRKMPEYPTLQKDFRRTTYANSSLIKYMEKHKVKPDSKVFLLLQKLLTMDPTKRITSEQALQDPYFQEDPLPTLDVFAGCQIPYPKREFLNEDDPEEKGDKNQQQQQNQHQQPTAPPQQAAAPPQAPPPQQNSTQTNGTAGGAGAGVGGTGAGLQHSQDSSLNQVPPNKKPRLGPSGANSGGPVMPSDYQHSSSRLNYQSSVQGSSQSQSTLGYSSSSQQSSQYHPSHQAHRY
CDK19/Cyclin C, sequence (P24863 whole entry partner): as the sequence (P24863 whole entry partner) above

[14] = target: CDK10/Cyclin L2 (Homo sapiens, UniProt Q15131); test: NanoBRET live-cell target engagement, CDK10-NanoLuc/Cyclin L2 in HEK-293; details: read-out: Inhibition at 10µM (%), CDK10/L2

CN1CC[C@H](c2c(O)cc(O)c3c(=O)cc(-c4ccccc4Cl)oc23)[C@H](O)C1 [Flavopiridol]
inhibition at 10 µM ([1]; average): 72.2%
inhibition at 10 µM ([1]; experiment 1): 65.7%
inhibition at 10 µM ([1]; experiment 2): 78.8%
inhibition at 10 µM ([2]; average): 75%
inhibition at 10 µM ([2]; experiment 1): 74.5%
inhibition at 10 µM ([2]; experiment 2): 75.4%
inhibition at 10 µM ([3]; average): 80.6%
inhibition at 10 µM ([3]; experiment 1): 78%
inhibition at 10 µM ([3]; experiment 2): 83.3%
inhibition at 10 µM ([4]; average): 90.8%
inhibition at 10 µM ([4]; experiment 1): 88.6%
inhibition at 10 µM ([4]; experiment 2): 93%
inhibition at 10 µM ([5]; average): 83.1%
inhibition at 10 µM ([5]; experiment 1): 85%
inhibition at 10 µM ([5]; experiment 2): 81.1%
inhibition at 10 µM ([6]; average): 86.6%
inhibition at 10 µM ([6]; experiment 1): 83.3%
inhibition at 10 µM ([6]; experiment 2): 89.9%
inhibition at 10 µM ([7]; average): 72.3%
inhibition at 10 µM ([7]; experiment 1): 65.8%
inhibition at 10 µM ([7]; experiment 2): 78.8%
inhibition at 10 µM ([8]; average): 95.7%
inhibition at 10 µM ([8]; experiment 1): 96.6%
inhibition at 10 µM ([8]; experiment 2): 94.9%
inhibition at 10 µM ([9]; average): 97.8%
inhibition at 10 µM ([9]; experiment 1): 97.5%
inhibition at 10 µM ([9]; experiment 2): 98%
inhibition at 10 µM ([10]; average): 27.7%
inhibition at 10 µM ([10]; experiment 1): 30.2%
inhibition at 10 µM ([10]; experiment 2): 25.2%
inhibition at 10 µM ([11]; average): 47.4%
inhibition at 10 µM ([11]; experiment 1): 40.9%
inhibition at 10 µM ([11]; experiment 2): 54%
inhibition at 10 µM ([12]; experiment 1): 6.3%
inhibition at 10 µM ([12]; experiment 2): 6.5%
IC50 ([13]; IC50 (nM), CDK19/C, experiment 1): 19 nM
IC50 ([13]; IC50 (nM), CDK19/C, experiment 2): 18 nM
IC50 ([13]; IC50 (nM), CDK19/Y (so in the source), average (± SEM where n=3)): 19 nM
IC50 ([13]; IC50 for CDK/cyclin complexes, CDK19/C, live HEK-293, 2 h, mean ± S.E.M. (n=3) or mean (n=2)): 19 nM
inhibition at 10 µM ([13]; average): 95.8%
inhibition at 10 µM ([13]; experiment 1): 98%
inhibition at 10 µM ([13]; experiment 2): 93.5%
inhibition at 10 µM ([14]; average): 38.5%
inhibition at 10 µM ([14]; experiment 1): 45.2%
inhibition at 10 µM ([14]; experiment 2): 31.9%
